The results in this text go back to US11530244B2, “Cyclic polypeptides for PCSK9 inhibition” (priority 2018, dated 2022).

The target in the assay is PCSK9 (Homo sapiens (Human), UniProt Q8NBP7). The assay can be described thus: PCSK9 Alexa FRET Standard assay (displacement of AlexaFluor647 tagged cyclic peptide Reagent A). Format: binding. The following applies: PCSK9 Alexa FRET Standard assay, 0.5 nM PCSK9, 20 nM AF cyclic peptide Reagent A; read-out: IC50. Here is the method:
A solution containing 1 nM biotinylated PCSK9+2.5 nM Lance Streptavidin Europium (Strep-Eu) was made in 50 mM HEPES pH 7.4, 0.15 M NaCl, 5 mM CaCl2), 0.01% BSA, and 0.01% Surfactant P20. A separate solution containing 40 nM of the AlexaFluor tagged cyclic peptide was made in the same buffer system. An Echo was used to transfer 0.750 ul of compound to an assay plate followed by the addition of 15 ul of PCSK9+Stept-Eu and 15 ul of AF peptide. The final assay volume was 30.750 ul containing 0.5 nM PCSK9, 1.25 nM Strep-Eu, and 20 nM AF cyclic peptide. The reaction was incubated at room temperature for at least two hours prior to fluorescence measurements using an Envision Multilabel Reader. IC50 values were determined by fitting data to a sigmoidal dose-response curve using nonlinear regression. Ki was then calculated from the IC50 and the KD of AF cyclic peptide. Counts (B-counts) of the europium-labeled PCSK9 were followed to observe if compounds were […]. A fall off of the B-counts likely indicated a false positive of inhibition. Data from this procedure was reported as “A=‘numerical value’ (nanomolar)”

pIC50: −log10 of the molar value. Starred links: 1 amine or outer side, 2 acyl side, 3 side chain; linkers in the order of their positions; H or OH if unused. Positions of bridges follow the written chain, without caps; N, C: chain ends. Non-standard residues stand in square brackets, D forms with d. Residues, ends and D or L forms follow the SMILES beside them. ξ: configuration not given here. NHCH2C6H4(p)CH2CH2NH = c1cc(CN[*:1])ccc1CCN[*:2]; X61 = O=C(CCCCC(=O)[*:1])NCc1ccc(CC(=O)[*:2])cc1; Ala(imidazol-2-yl) = N[C@@H](Cc1ncc[nH]1)C(=O)O; Phe(4-COOH) = N[C@@H](Cc1ccc(C(=O)O)cc1)C(=O)O; Trp(5-F) = N[C@@H](Cc1c[nH]c2ccc(F)cc12)C(=O)O; X3 = O=C(CCSCc1cc(F)cc(CSCCN[*:1])c1)[*:2]; X33 = CC(C)C(N[*:1])c1ncc(C(=O)[*:2])[nH]1; Lys(Me3) = C[N+](C)(C)CCCC[C@H](N)C(=O)O; X4 = O=C(CCSCc1cccc(CSCCN[*:1])c1)[*:2]; mXylylene = c1cc(C[*:1])cc(C[*:2])c1; cisHyp = O=C(O)[C@@H]1C[C@H](O)CN1; Hyp = O=C(O)[C@@H]1C[C@@H](O)CN1; ξAla(CF3) = NC(CC(F)(F)F)C(=O)O; αMeP = C[C@@]1(C(=O)O)CCCN1; Dap = NC[C@H](N)C(=O)O; GABA = NCCCC(=O)O; Mpa = O=C(O)CCS

PCSK9, sequence (Q8NBP7 153-692): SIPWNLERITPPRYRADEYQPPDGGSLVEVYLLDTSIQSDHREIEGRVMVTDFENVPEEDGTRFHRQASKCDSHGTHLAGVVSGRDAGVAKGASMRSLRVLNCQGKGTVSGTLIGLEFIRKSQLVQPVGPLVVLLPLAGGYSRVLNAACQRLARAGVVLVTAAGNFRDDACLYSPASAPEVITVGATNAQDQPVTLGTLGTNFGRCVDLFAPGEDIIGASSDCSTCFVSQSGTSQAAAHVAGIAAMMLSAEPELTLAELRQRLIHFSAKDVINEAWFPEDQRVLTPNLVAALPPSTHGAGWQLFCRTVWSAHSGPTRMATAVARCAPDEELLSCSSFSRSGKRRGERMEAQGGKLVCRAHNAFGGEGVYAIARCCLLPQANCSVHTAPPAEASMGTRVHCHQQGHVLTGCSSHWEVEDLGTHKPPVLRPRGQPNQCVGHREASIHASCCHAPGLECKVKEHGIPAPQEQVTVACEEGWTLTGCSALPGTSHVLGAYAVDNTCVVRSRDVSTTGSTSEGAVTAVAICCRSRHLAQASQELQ

By pIC50 is commonly meant −log10 of the IC50, conventionally taken in molar units. Turning to `CC[C@H](C)[C@@H]1NC(=O)[C@@H]2CCCN2C(=O)[C@H](Cc2c[nH]c3ccc(F)cc23)NC(=O)[C@H](Cc2c[nH]c3ccc(F)cc23)NC(=O)CNC(=O)[C@H](CCCCN)NC(=O)CCSCc2cccc(c2)CSC[C@@H](C(N)=O)NC(=O)[C@]2(C)CCCN2C(=O)[C@H](Cc2ccc(O)cc2)NC1=O` [Compound 006] ([Mpa]KG[Trp(5-F)][Trp(5-F)]PIY[αMeP]C-NH2; linker 1-10 via mXylylene), the pIC50 is 4.30 to 4.68.
As for `COc1ccc(C[C@@H]2NC(=O)[C@H](Cc3cnc[nH]3)NC(=O)[C@H](CC(=O)O)NC(=O)[C@H](Cc3c[nH]c4ccc(F)cc34)NC(=O)[C@H](Cc3c[nH]c4ccc(F)cc34)NC(=O)[C@@H](C)NC(=O)[C@H](CCCCN)NC(=O)[C@@H](NC(C)=O)CCC(=O)NCc3ccc(cc3)CCNC(=O)[C@]3(C)CCCN3C2=O)cc1` [Compound 421] (Ac-EK[dA][Trp(5-F)][Trp(5-F)]DHY(Me)[αMeP]; linker 1-C via NHCH2C6H4(p)CH2CH2NH), the figure is 6.00 to 7.00; as for `COc1ccc(C[C@@H]2NC(=O)[C@H](Cc3ncc[nH]3)NC(=O)[C@H](CC(=O)O)NC(=O)[C@H](Cc3c[nH]c4ccc(F)cc34)NC(=O)[C@H](Cc3c[nH]c4ccc(F)cc34)NC(=O)[C@@H](C)NC(=O)C(CC(F)(F)F)NC(=O)CCSCc3cccc(c3)CSCCNC(=O)[C@]3(C)CCCN3C2=O)cc1` (stereo partly shown) [Compound 444] (cyclo(D[Ala(imidazol-2-yl)]Y(Me)[αMeP][X4][ξAla(CF3)][dA][Trp(5-F)][Trp(5-F)])), 4.30 to 4.68.
As for `COc1ccc(C[C@@H]2NC(=O)[C@H]([C@@H](C)O)NC(=O)[C@@H]3C[C@H](F)CN3C(=O)[C@H](Cc3c[nH]c4ccc(F)cc34)NC(=O)[C@H](Cc3c[nH]c4ccc(F)cc34)NC(=O)[C@@H](C)NC(=O)[C@H](CCCCN)NC(=O)[C@@H](NC(C)=O)CC(=O)NCc3ccccc3C[C@@H](C(N)=O)NC(=O)[C@]3(C)CCCN3C2=O)cc1` [Compound 079], the figure is 4.92 to 6.00; as for `C[C@@]12CCCN1C(=O)[C@H](Cc1ccc(O)cc1)NC(=O)CN1C(=O)[C@H](CCc3ccccc31)NC(=O)[C@H](Cc1c[nH]c3ccc(F)cc13)NC(=O)[C@H](Cc1c[nH]c3ccc(F)cc13)NC(=O)CNC(=O)[C@H](CCCCN)NC(=O)CCSCc1cccc(c1)CSC[C@@H](C(N)=O)NC2=O` [Compound 110], 4.30 to 4.68; as for `CC(=O)N[C@H]1CCc2cn(nn2)-c2ccc(cc2)C[C@@H](C(N)=O)NC(=O)[C@]2(C)CCCN2C(=O)[C@H](Cc2ccc(O)cc2)NC(=O)[C@H](Cc2cnc[nH]2)NC(=O)[C@H](CC(=O)O)NC(=O)[C@H](Cc2c[nH]c3ccc(F)cc23)NC(=O)[C@H](Cc2c[nH]c3ccc(F)cc23)NC(=O)CNC(=O)[C@H](C)NC1=O` [Compound 331], 4.30 to 4.68.
Consider `COc1ccc(C[C@@H]2NC(=O)[C@H](Cc3cnc[nH]3)NC(=O)[C@H](CC(=O)O)NC(=O)[C@H](Cc3c[nH]c4ccc(F)cc34)NC(=O)[C@H](Cc3c[nH]c4ccc(F)cc34)NC(=O)[C@@H](C)NC(=O)CCCCC(=O)NCc3ccc(cc3)CC(=O)NC[C@@H](C(N)=O)NC(=O)[C@]3(C)CCCN3C2=O)cc1` [Compound 412] ([dA][Trp(5-F)][Trp(5-F)]DHY(Me)[αMeP][Dap]-NH2; linker N-8 via X61), for which the pIC50 was 4.92 to 6.00.
As to `COc1ccc(C[C@@H]2NC(=O)[C@@H]([C@H](C)O)NC(=O)[C@@H]3C[C@@H](O)CN3C(=O)[C@H](Cc3c[nH]c4ccc(F)cc34)NC(=O)[C@H](Cc3c[nH]c4ccc(F)cc34)NC(=O)[C@@H](C)NC(=O)[C@H](CCCCN)NC(=O)CCSCc3cccc(c3)CSCCNC(=O)[C@]3(C)CCCN3C2=O)cc1` [Compound 084] (cyclo([Hyp][dT]Y(Me)[αMeP][X4]K[dA][Trp(5-F)][Trp(5-F)])), the pIC50 is 6.00 to 7.00.
With `CC(=O)N[C@@H]1CCCC/C=C/CO[C@H]2C[C@@H](C(N)=O)N(C2)C(=O)[C@H](Cc2ccc(O)cc2)NC(=O)[C@H](Cc2cnc[nH]2)NC(=O)[C@H](CC(=O)O)NC(=O)[C@H](Cc2c[nH]c3ccc(F)cc23)NC(=O)[C@H](Cc2c[nH]c3ccc(F)cc23)NC(=O)CCNC1=O` [Compound 418] the figure was 4.30 to 4.68; with `COc1ccc(C[C@@H]2NC(=O)[C@H](Cc3cnc[nH]3)NC(=O)[C@H](CC(=O)O)NC(=O)[C@H](Cc3c[nH]c4ccc(F)cc34)NC(=O)[C@H](Cc3c[nH]c4ccc(F)cc34)NC(=O)[C@@H](C)NC(=O)CCCNC(=O)c3ccc(cc3)C[C@@H](C(N)=O)NC(=O)[C@]3(C)CCCN3C2=O)cc1` [Compound 432] ([GABA][dA][Trp(5-F)][Trp(5-F)]DHY(Me)[αMeP][Phe(4-COOH)]-NH2; lactam N-9), 4.92 to 6.00; with `COc1ccc(C[C@@H]2NC(=O)[C@@H]([C@H](C)O)NC(=O)[C@@H]3C[C@H](O)CN3C(=O)[C@H](Cc3c[nH]c4ccc(F)cc34)NC(=O)[C@H](Cc3c[nH]c4ccc(F)cc34)NC(=O)[C@@H](C)NC(=O)[C@H](CCCCN)NC(=O)CCSCc3cc(F)cc(c3)CSCCNC(=O)[C@]3(C)CCCN3C2=O)cc1` [Compound 086] (cyclo(K[dA][Trp(5-F)][Trp(5-F)][cisHyp][dT]Y(Me)[αMeP][X3])), 4.30 to 4.68.
In the case of `COc1ccc(C[C@@H]2NC(=O)[C@H]([C@H](C)O)NC(=O)[C@@H]3CCCc4cn(nn4)CCCC[C@H](NC(=O)[C@@H](C)NC(=O)[C@H](CCCCN)NC(=O)CCSCc4cccc(c4)CSCCNC(=O)[C@]4(C)CCCN4C2=O)C(=O)N[C@@H](Cc2c[nH]c4ccc(F)cc24)C(=O)N3)cc1` [Compound 526], the negative logarithm of the IC50 (pIC50) was 7.00 to 9.96.
As for `C[C@@]12CCCN1C(=O)[C@H](Cc1ccc(O)cc1)NC(=O)CN1CCCC[C@H](NC(=O)[C@H](Cc3c[nH]c4ccc(F)cc34)NC(=O)[C@H](Cc3c[nH]c4ccc(F)cc34)NC(=O)CNC(=O)[C@H](CCCCN)NC(=O)CCSCc3cccc(c3)CSC[C@@H](C(N)=O)NC2=O)C1=O` [Compound 104], the figure is 4.30 to 4.68.
As to `CC(C)C1NC(=O)CCSCc2cccc(c2)CSC[C@@H](C(N)=O)NC(=O)[C@]2(C)CCCN2C(=O)[C@H](Cc2ccc(O)cc2)NC(=O)[C@H](Cc2c[nH]cn2)NC(=O)[C@H](CC(=O)O)NC(=O)[C@H](Cc2c[nH]c3ccc(F)cc23)NC(=O)[C@H](Cc2c[nH]c3ccc(F)cc23)NC(=O)c2cnc1[nH]2` (stereo partly shown) [Compound 449] ([Mpa][X33][Trp(5-F)][Trp(5-F)]DHY[αMeP]C-NH2; linker 1-9 via mXylylene), the pIC50 is 6.00 to 7.00.
Regarding `CC(=O)N[C@H]1CCCC/C=C/CO[C@H]2C[C@@H](C(N)=O)N(C2)C(=O)[C@H](Cc2ccc(O)cc2)NC(=O)[C@H](Cc2cnc[nH]2)NC(=O)[C@H](CC(=O)O)NC(=O)[C@H](Cc2c[nH]c3ccc(F)cc23)NC(=O)[C@H](Cc2c[nH]c3ccc(F)cc23)NC(=O)CNC(=O)[C@H](CCCCN)NC1=O` [Compound 431], the pIC50 is 7.00 to 9.96.
As for `COc1ccc(C[C@@H]2NC(=O)[C@H](Cc3cnc[nH]3)NC(=O)[C@H](CC(=O)O)NC(=O)[C@H](Cc3c[nH]c4ccc(F)cc34)NC(=O)[C@H](Cc3c[nH]c4ccc(F)cc34)NC(=O)[C@@H](C)NC(=O)[C@H](CCCC[N+](C)(C)C)NC(=O)CCSCc3cccc(c3)CSCCNC(=O)[C@]3(C)CCCN3C2=O)cc1` [Compound 461] (cyclo(DHY(Me)[αMeP][X4][Lys(Me3)][dA][Trp(5-F)][Trp(5-F)])), the figure is 4.30 to 4.68.
